Assay results from patent publication US10647679B2, “N-methyl-D-aspartate receptor (NMDAR) potentiators, pharmaceutical compositions, and uses related thereto” (Emory University, priority 2015, dated 2020).
Read-outs that look alike come from different tables or passages of the source. Blank lines part the entries; values can stand above or below the molecule they belong to.

Legend:
Format in all cases: cell-based
[1] = target: T1, recombinant rat GluN1/GluN2B (Rattus norvegicus, UniProt Q00960); assay: Two-electrode voltage-clamp (TEVC) recordings in Xenopus laevis oocytes, GluN1/GluN2B; conditions: for I10 μM/Icontrol (mean ± SEM, %) GluN2B: 10 μM compound, Table 3
T1 construct: expressed in transfected cells; host or cells: Xenopus laevis oocytes (Ecocyte) injected with in vitro transcribed cRNA
Procedure: (§1) Data are from between 3-26 oocytes from 2-5 frogs for each compound and receptor tested.
(§2) Two-electrode voltage-clamp recordings were performed in Xenopus laevis oocytes (Ecocyte) expressing recombinant rat GluN1/GluN2A, GluN1/GluN2B, GluN1/GluN2C, GluN1/GluN2D. cRNA was transcribed in vitro (Ambion), diluted with nuclease free water, and injected at a ratio of 1:2 GluN1:GluN2 (5-10 ng total cRNA). The oocytes were kept in Barth's solution comprised of (in mM) 88 NaCl, 5 Tris-HCl, 2.4 NaHCO3, 1 KCl, 0.84 MgSO4, 0.41 CaCl2, and 0.33 Ca(NO3)2 at pH 7.4 at 15-17° C. for two to five days before experiments. Oocytes were placed into a perfusion chamber and continually washed with recording solution containing (in mM) 90 NaCl, 1.0 KCl, 0.5 BaCl2, 0.005 EDTA, and 10 HEPES at pH 7.4 (23° C.). Voltage clamp recordings were conducted at a holding potential of −40 mV. All compounds were made as 20 mM stock solutions in DMSO and dissolved to reach the final concentration in recording solution. Final DMSO content was 0.05-0.5% (vol/vol). Some oocytes expressing GluN1/GluN2A were pretreated with […] BAPTA-AM for 10 minutes or injected with […] of 2 mM K-BAPTA to prevent gradual run-up of the current response.

[2] = target: T2, recombinant rat GluN1/GluN2D (Rattus norvegicus, UniProt P35439+Q62645); assay: Two-electrode voltage-clamp (TEVC) recordings in Xenopus laevis oocytes, GluN1/GluN2D
T2 construct: expressed in transfected cells; host or cells: Xenopus laevis oocytes (Ecocyte) injected with in vitro transcribed cRNA
Procedure: as §1, §2

[3] = target: T3, recombinant rat GluN1/GluN2C (Rattus norvegicus, UniProt P35439+Q00961); assay: Two-electrode voltage-clamp (TEVC) recordings in Xenopus laevis oocytes, GluN1/GluN2C
T3 construct: expressed in transfected cells; host or cells: Xenopus laevis oocytes (Ecocyte) injected with in vitro transcribed cRNA
Procedure: as §1, §2

[4] = target: T4, recombinant rat GluN1/GluN2B (Rattus norvegicus, UniProt P35439+Q00960); assay: Two-electrode voltage-clamp (TEVC) recordings in Xenopus laevis oocytes, GluN1/GluN2B
T4 construct: expressed in transfected cells; host or cells: Xenopus laevis oocytes (Ecocyte) injected with in vitro transcribed cRNA
Procedure: as §1, §2

[5] = target: T5, recombinant rat GluN1/GluN2D (Rattus norvegicus, UniProt Q62645); assay: Two-electrode voltage-clamp (TEVC) recordings in Xenopus laevis oocytes, GluN1/GluN2D; conditions: for I10 μM/Icontrol (mean ± SEM, %) GluN2D: 10 μM compound, Table 3
T5 construct: expressed in transfected cells; host or cells: Xenopus laevis oocytes (Ecocyte) injected with in vitro transcribed cRNA
Procedure: as §1, §2

[6] = target: T6, recombinant rat GluN1/GluN2C (Rattus norvegicus, UniProt Q00961); assay: Two-electrode voltage-clamp (TEVC) recordings in Xenopus laevis oocytes, GluN1/GluN2C; conditions: for I10 μM/Icontrol (mean ± SEM, %) GluN2C: 10 μM compound, Table 3
T6 construct: expressed in transfected cells; host or cells: Xenopus laevis oocytes (Ecocyte) injected with in vitro transcribed cRNA
Procedure: as §1, §2

[7] = untitled tables after drawing 25 and drawing 36, read-out: EC50 (μM) GluN2D
[8] = untitled tables after drawing 25 and drawing 36, read-out: EC50 (μM) GluN2C
[9] = fitted when potentiation at 30 μM exceeded 120%, Tables 3, 5-7, read-out: EC50 (max.) (μM %) GluN2B: fitted EC50
[10] = percentage of the initial glutamate (100 μM) and glycine (30 μM) current, read-out: EC50 (max.) (μM %) GluN2B: fitted maximum response
[11] = fitted when potentiation at 30 μM exceeded 120%, Tables 3, 5-7, read-out: EC50 (max.) (μM %) GluN2D: fitted EC50
[12] = percentage of the initial glutamate (100 μM) and glycine (30 μM) current, read-out: EC50 (max.) (μM %) GluN2D: fitted maximum response
[13] = percentage of the initial glutamate (100 μM) and glycine (30 μM) current, read-out: EC50 (max.) (μM %) GluN2C: fitted maximum response
[14] = Tables 11-13, read-out: EC50 & Max Effect: 2D Max (%)
[15] = Tables 11-13, read-out: EC50 & Max Effect: 2C Max (%)
[16] = Tables 11-13, read-out: EC50 & Max Effect: 2D
[17] = Tables 11-13, read-out: EC50 & Max Effect: 2C
[18] = read-out: EC50 & Max Effect: 2D Max (%)
[19] = read-out: EC50 & Max Effect: 2C Max (%)
[20] = maximum potentiation, response without modulator = 100%, read-out: GluN2D EC50 (μM)/Max %: Max %
[21] = maximum potentiation, response without modulator = 100%, read-out: GluN2C EC50 (μM)/Max %: Max %

T3 sequence (Q00961 20-1237, other chains not shown): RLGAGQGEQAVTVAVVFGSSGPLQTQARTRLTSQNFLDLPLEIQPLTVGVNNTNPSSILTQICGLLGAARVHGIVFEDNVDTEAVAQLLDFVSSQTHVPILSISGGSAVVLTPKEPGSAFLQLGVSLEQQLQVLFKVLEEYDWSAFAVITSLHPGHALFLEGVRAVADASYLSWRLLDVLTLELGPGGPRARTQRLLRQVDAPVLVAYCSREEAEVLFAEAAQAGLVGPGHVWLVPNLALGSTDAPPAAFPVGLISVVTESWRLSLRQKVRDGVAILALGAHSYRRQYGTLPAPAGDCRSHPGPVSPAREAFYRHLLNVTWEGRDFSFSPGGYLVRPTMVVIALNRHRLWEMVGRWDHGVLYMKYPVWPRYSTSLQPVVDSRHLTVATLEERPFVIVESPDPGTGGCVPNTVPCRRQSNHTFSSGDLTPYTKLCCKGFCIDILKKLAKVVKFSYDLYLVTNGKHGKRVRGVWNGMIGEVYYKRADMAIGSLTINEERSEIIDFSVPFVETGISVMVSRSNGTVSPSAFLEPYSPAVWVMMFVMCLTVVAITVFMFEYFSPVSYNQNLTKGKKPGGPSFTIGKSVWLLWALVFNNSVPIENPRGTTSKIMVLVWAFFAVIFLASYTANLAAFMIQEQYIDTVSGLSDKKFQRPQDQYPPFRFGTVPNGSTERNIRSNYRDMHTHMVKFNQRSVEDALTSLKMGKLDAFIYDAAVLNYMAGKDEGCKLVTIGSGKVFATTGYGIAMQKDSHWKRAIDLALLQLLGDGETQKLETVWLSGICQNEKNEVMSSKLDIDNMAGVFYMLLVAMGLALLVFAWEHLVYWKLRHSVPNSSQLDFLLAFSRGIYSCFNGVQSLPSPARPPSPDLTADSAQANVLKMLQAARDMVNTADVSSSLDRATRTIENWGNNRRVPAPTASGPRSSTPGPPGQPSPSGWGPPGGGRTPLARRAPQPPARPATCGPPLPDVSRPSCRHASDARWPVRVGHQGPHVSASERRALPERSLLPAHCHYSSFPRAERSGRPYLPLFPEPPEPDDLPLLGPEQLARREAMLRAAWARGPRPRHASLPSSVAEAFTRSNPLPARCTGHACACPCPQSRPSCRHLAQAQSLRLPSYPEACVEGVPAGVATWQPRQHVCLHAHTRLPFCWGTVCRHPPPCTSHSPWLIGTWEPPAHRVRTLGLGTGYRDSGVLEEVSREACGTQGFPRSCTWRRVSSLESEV
T6 sequence (Q00961 20-1237, other chains not shown): as above
T2 sequence (Q62645 28-1323, other chains not shown): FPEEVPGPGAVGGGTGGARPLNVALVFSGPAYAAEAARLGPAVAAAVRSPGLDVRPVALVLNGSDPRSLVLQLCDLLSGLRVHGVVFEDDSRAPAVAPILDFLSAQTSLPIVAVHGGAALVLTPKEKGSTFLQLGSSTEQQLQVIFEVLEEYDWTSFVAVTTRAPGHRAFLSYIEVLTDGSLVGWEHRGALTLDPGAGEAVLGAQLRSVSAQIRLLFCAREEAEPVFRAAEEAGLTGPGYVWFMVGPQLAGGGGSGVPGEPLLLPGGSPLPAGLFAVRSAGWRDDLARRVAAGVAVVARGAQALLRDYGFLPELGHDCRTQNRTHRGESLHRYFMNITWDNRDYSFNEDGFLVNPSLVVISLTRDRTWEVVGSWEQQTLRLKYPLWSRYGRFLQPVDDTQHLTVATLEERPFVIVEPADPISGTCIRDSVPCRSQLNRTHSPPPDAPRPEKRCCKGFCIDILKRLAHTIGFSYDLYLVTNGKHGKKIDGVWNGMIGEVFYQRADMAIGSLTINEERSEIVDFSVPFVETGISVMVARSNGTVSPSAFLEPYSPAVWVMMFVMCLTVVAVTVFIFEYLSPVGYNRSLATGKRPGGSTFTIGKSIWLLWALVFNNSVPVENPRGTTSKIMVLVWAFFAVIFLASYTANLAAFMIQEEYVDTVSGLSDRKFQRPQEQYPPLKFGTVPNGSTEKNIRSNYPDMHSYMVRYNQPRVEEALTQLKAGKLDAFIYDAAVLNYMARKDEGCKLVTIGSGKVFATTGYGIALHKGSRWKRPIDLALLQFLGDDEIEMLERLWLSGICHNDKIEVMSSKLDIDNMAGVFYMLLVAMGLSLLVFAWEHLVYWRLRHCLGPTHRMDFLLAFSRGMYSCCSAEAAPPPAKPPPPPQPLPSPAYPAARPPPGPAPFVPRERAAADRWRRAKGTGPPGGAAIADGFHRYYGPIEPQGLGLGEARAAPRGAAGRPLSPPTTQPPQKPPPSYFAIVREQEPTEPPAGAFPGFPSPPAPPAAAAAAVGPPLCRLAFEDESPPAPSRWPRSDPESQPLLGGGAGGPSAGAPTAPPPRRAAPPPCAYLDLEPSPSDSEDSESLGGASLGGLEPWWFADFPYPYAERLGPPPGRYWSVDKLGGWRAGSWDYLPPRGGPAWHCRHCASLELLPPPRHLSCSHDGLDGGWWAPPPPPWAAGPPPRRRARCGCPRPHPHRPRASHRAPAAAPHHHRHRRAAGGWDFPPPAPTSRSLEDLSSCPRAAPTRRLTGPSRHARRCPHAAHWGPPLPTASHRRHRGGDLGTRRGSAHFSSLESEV
T5 sequence (Q62645 28-1323, other chains not shown): as above
T4 sequence (Q00960 27-1482, other chains not shown): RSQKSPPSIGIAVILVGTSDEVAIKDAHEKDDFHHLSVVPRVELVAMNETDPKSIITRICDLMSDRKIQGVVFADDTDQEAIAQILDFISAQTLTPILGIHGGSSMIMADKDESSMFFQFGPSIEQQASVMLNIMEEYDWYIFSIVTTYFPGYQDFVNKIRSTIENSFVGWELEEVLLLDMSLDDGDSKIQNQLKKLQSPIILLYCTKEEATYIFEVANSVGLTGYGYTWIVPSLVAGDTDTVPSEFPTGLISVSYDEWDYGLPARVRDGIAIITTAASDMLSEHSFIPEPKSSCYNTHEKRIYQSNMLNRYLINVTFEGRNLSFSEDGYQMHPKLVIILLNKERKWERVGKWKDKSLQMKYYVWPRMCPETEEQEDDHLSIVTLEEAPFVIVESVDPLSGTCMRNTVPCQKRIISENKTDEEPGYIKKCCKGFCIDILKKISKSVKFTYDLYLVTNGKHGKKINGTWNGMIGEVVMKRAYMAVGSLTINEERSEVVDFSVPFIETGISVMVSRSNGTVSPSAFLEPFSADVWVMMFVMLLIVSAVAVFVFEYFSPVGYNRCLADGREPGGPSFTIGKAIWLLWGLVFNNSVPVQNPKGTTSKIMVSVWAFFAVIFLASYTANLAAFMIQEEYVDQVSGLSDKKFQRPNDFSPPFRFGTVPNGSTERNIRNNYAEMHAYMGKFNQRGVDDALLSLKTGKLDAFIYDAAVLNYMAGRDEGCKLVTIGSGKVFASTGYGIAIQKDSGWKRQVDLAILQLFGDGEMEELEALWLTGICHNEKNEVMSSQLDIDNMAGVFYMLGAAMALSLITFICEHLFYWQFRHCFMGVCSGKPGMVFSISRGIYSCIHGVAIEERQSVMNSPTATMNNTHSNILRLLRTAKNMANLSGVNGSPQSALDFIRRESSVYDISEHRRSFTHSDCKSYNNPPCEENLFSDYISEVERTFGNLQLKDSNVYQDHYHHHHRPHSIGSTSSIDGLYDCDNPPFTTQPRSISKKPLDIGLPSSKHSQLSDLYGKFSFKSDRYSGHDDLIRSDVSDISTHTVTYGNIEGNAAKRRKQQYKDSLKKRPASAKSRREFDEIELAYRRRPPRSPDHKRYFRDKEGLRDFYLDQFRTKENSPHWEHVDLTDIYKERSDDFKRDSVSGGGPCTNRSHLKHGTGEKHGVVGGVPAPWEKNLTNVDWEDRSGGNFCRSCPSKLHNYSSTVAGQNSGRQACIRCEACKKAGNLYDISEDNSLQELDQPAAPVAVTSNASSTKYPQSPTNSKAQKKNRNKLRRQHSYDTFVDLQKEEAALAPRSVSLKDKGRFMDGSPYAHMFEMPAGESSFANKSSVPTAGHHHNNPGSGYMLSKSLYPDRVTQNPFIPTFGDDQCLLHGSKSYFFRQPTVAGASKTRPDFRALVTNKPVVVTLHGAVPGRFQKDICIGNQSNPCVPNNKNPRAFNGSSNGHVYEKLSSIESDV

- GluN2B response % at 30 µM [1]: 96% at 30
- EC50 [2, 7]: 14 µM
- EC50 [3, 8]: 11 µM
Compound: COc1ccc(OCC2c3ccc(OC)cc3CCN2C(=O)CCCC(F)(F)F)cc1 (stereo not shown) [1180-252]

Compound: COc1ccc(OC[C@H]2c3ccc(OC(C)C)cc3CCN2C(=O)c2cccc(Cl)c2)cc1 [(R)-(+)-1180-55]
- I10 μM/Icontrol (mean ± SEM, %) GluN2B [1]: 150%
- EC50 [4, 9]: 5 µM
- Emax [4, 10]: 167%
- EC50 [2, 11]: 1.3 µM
- Emax [2, 12]: 384%
- I10 μM/Icontrol (mean ± SEM, %) GluN2D [5]: 345%
- Emax [3, 13]: 342%
- I10 μM/Icontrol (mean ± SEM, %) GluN2C [6]: 323%

- Emax [2, 14]: 327%
- Emax [3, 15]: 293%
Compound: COc1ccc(OCC2c3ccc(N(C)C)cc3CCN2C(=O)c2cccc(Br)c2)cc1 (stereo not shown) [drawing 33 R1=Br R2=H R3=H R4=NMe2 R5=H]

Compound: CCOc1ccc(OC[C@@H]2c3ccc(OC(C)C)cc3CCN2C(=O)c2cccc(C(F)(F)F)c2)cc1 [(S)-(−)-1180-92]
- I30 μM/Icontrol (mean ± SEM, %) GluN2B ([1]; 30 μM compound, Tables 5-7): 207%
- EC50 [4, 9]: 1.9 µM
- Emax [4, 10]: 210%
- I30 μM/Icontrol (mean ± SEM, %) GluN2D ([5]; 30 μM compound, Tables 5-7): 116%
- EC50 ([3]; fitted when potentiation at 30 μM exceeded 120%, Tables 3, 5-7, read-out: EC50 (max.) (μM %) GluN2C: fitted EC50): 1.2 µM
- Emax [3, 13]: 141%
- I30 μM/Icontrol (mean ± SEM, %) GluN2C ([6]; 30 μM compound, Tables 5-7): 132%

- EC50 [2, 16]: 11.4 µM
- Emax [2, 14]: 156%
- EC50 [3, 17]: 12.3 µM
- Emax [3, 15]: 450%
Compound: COc1ccc(OCC2c3cc(OC)c(OC)cc3CCN2C(=O)c2ccccc2)cc1 (stereo not shown) [drawing 33 R1=H R2=H R3=H R4=OMe R5=OMe]

Compound: COc1ccc(OCC2c3ccc(OCc4ccccc4)cc3CCN2C(=O)c2cccc(Br)c2)cc1 (stereo not shown) [drawing 33 R1=Br R2=H R3=H R4=OBn R5=H]
- EC50 ([2]; EC50 & Max Effect: 2D (μM)): 0.27 µM
- Emax [2, 18]: 219%
- EC50 ([3]; EC50 & Max Effect: 2C (μM)): 0.31 µM
- Emax [3, 19]: 257%

- EC50 ([4]; untitled tables after drawing 25 and drawing 36, read-out: EC50 (μM) GluN2B): 0.6 µM
- EC50 [2, 7]: 0.4 µM
- EC50 [3, 8]: 0.3 µM
Compound: CC(C)Oc1ccc(OCC2c3ccc(OC(C)C)cc3CCN2C(=S)c2cccc(Cl)c2)cc1 (stereo not shown) [1180-265]

- Emax ([4]; maximum potentiation, response without modulator = 100%, read-out: GluN2B EC50 (μM)/Max %: Max %): 184%
- Emax [2, 20]: 145%
- Emax [3, 21]: 179%
Compound: CCOc1ccc(OCC2c3ccc(OC(C)C)cc3CCN2C(=S)c2cccc(Cl)c2)cc1 (stereo not shown) [1180-149]

- EC50 [2, 16]: 0.43 µM
- Emax [2, 14]: 213%
- EC50 [3, 17]: 0.4 µM
- Emax [3, 15]: 226%
Compound: COc1ccc(OCC2c3ccc(SCc4ccccc4)cc3CCN2C(=O)c2cccc(Cl)c2)cc1 (stereo not shown) [drawing 33 R1=Cl R2=H R3=H R4=SBn R5=H]

- I10 μM/Icontrol (mean ± SEM, %) GluN2B [1]: 121%
- EC50 [2, 11]: 2.3 µM
- Emax [2, 12]: 255%
- I10 μM/Icontrol (mean ± SEM, %) GluN2D [5]: 215%
- Emax [3, 13]: 252%
- I10 μM/Icontrol (mean ± SEM, %) GluN2C [6]: 252%
Compound: COc1ccc(OC[C@H]2c3ccc(OC(C)C)cc3CCN2C(=S)c2cccc(Cl)c2)cc1 [(R)-(+)-1180-163]

- GluN2B response % at 30 µM [1]: 107% at 30
- EC50 [2, 7]: 5.5 µM
- EC50 [3, 8]: 2.6 µM
Compound: COc1ccc(OCC2c3ccc(OC)cc3CCN2C(=O)c2ccc(Cl)o2)cc1 (stereo not shown) [1180-234]

- Emax [2, 20]: 127%
- Emax [3, 21]: 134%
Compound: COc1ccc(OCC2c3ccc(N(C)C)cc3CCN2C(=S)c2cccc(Cl)c2)cc1 (stereo not shown) [1180-167]

Compound: COc1ccc(OC[C@@H]2c3cc(OC)c(OC)cc3CCN2C(=O)c2cccc(Cl)c2)cc1 [S-1390]
- Emax [2, 18]: 299%
- EC50 ([3]; EC50 & Max Effect: 2C (μM)): 6.1 µM
- Emax [3, 19]: 275%
